Our source for the IC50 values is patent publication US20220169628A1 (University of Florida Research Foundation, Incorporated, priority 2019, published 2022).

In assay [1] the test system is MOLT-4 cells. The assay is described as follows: Cell viability assay, MTS, 48 h, MOLT-4. It counts as cell-based. The settings on record: 48 hours, read-out: IC50 (48 hours) MOLT-4. The procedure:
(§1) Acute lymphoblastic leukemia cells (MOLT-4 and RS4; 11) or small cell lung cancer (NCI-H146 or simply H146) were incubated with increasing concentrations of Bcl-xL degraders for 48 h. Cell viability was measured by tetrazolium-based MTS assay.

In assay [2] the test system is RS4;11 cells. The assay is described as follows: Cell viability assay, MTS, 48 h, RS4;11. The format is cell-based. As to conditions: 48 hours, read-out: IC50 (48 hours) RS4;11. The procedure: as §1

pIC50: −log10 of the molar value. Where two headings read alike, the source gives them in different places.

One may read the pIC50 as −log10 of the IC50, conventionally taken in molar units. In the case of `Cc1ncsc1-c1ccc([C@H](C)NC(=O)[C@@H]2C[C@@H](O)CN2C(=O)[C@@H](NC(=O)CCCCCCC(=O)NC2CCN(CC3(C)CCC(c4ccc(Cl)cc4)=C(CN4CCN(c5ccc(C(=O)NS(=O)(=O)c6ccc(N[C@H](CCN7CCOCC7)CSc7ccccc7)c(S(=O)(=O)C(F)(F)F)c6)cc5)CC4)C3)CC2)C(C)(C)C)cc1` (stereo partly drawn) [degrader #38, N1-(1-((4′-chloro-4-methyl-6-((4-(4-(((4-(((R)-4-morpholino-1-(phenylthio)butan-2-yl)amino)-3-((trifluoromethyl)sulfonyl)phenyl)sulfonyl)carbamoyl)phenyl)piperazin-1-yl)methyl)-2,3,4,5-tetrahydro-[1,1′-biphenyl]-4-yl)methyl)piperidin-4-yl)-N8-((S)-1-((2S,4R)-4-hydroxy-2-(((S)-1-(4-(4-methylthiazol-5-yl)phenyl)ethyl)carbamoyl)pyrrolidin-1-yl)-3,3-dimethyl-1-oxobutan-2-yl)octanediamide], the negative-log IC50 (pIC50) in assay [1] (Homo sapiens, MOLT-4, 48 h) was 6.82 to 7.30; in assay [2] (Homo sapiens, RS4-11, 48 h), above 7.30.
The like results for `Cc1ncsc1-c1ccc([C@H](C)NC(=O)[C@@H]2C[C@@H](O)CN2C(=O)[C@@H](NC(=O)CC2CCC(CC(=O)N3CCN(CC4(C)CCC(c5ccc(Cl)cc5)=C(CN5CCN(c6ccc(C(=O)NS(=O)(=O)c7ccc(N[C@H](CCN8CCOCC8)CSc8ccccc8)c(S(=O)(=O)C(F)(F)F)c7)cc6)CC5)C4)CC3)CC2)C(C)(C)C)cc1` (stereo partly drawn) [degrader #40] were, in that order, above 7.30 and above 7.30.
For `Cc1ncsc1-c1ccc([C@H](C)NC(=O)[C@@H]2C[C@@H](O)CN2C(=O)[C@@H](NC(=O)CCCCCCC(=O)N2CCN(C[C@@]3(C)CCC(c4ccc(Cl)cc4)=C(CN4CCN(c5ccc(C(=O)NS(=O)(=O)c6ccc(N[C@H](CCN7CCOCC7)CSc7ccccc7)c(S(=O)(=O)C(F)(F)F)c6)cc5)CC4)C3)CC2)C(C)(C)C)cc1` [degrader #43, (2S,4R)-1-((S)-2-(8-(4-(((S)-4′-chloro-4-methyl-6-((4-(4-(((4-(((R)-4-morpholino-1-(phenylthio)butan-2-yl)amino)-3-((trifluoromethyl)sulfonyl)phenyl)sulfonyl)carbamoyl)phenyl)piperazin-1-yl)methyl)-2,3,4,5-tetrahydro-[1,1′-biphenyl]-4-yl)methyl)piperazin-1-yl)-8-oxooctanamido)-3,3-dimethylbutanoyl)-4-hydroxy-N—((S)-1-(4-(4-methylthiazol-5-yl)phenyl)ethyl)pyrrolidine-2-carboxamide], in that order: 6.82 to 7.30 and 6.30 to 6.82.
The like results for `Cc1ncsc1-c1ccc([C@H](C)NC(=O)[C@@H]2C[C@@H](O)CN2C(=O)[C@@H](NC(=O)CCCCCCC(=O)N2CCN(C[C@]3(C)CCC(c4ccc(Cl)cc4)=C(CN4CCN(c5ccc(C(=O)NS(=O)(=O)c6ccc(N[C@H](CCN7CCOCC7)CSc7ccccc7)c(S(=O)(=O)C(F)(F)F)c6)cc5)CC4)C3)CC2)C(C)(C)C)cc1` [degrader #44, (2S,4R)-1-((S)-2-(8-(4-(((R)-4′-chloro-4-methyl-6-((4-(4-(((4-(((R)-4-morpholino-1-(phenylthio)butan-2-yl)amino)-3-((trifluoromethyl)sulfonyl)phenyl)sulfonyl)carbamoyl)phenyl)piperazin-1-yl)methyl)-2,3,4,5-tetrahydro-[1,1′-biphenyl]-4-yl)methyl)piperazin-1-yl)-8-oxooctanamido)-3,3-dimethylbutanoyl)-4-hydroxy-N—((S)-1-(4-(4-methylthiazol-5-yl)phenyl)ethyl)pyrrolidine-2-carboxamide] were, in that order, above 7.30 and above 7.30.
As for `Cc1ncsc1-c1ccc([C@H](C)NC(=O)[C@@H]2C[C@@H](O)CN2C(=O)[C@@H](NC(=O)CCCCCCC(=O)N2C[C@@H]3C[C@H]2CN3CC2(C)CCC(c3ccc(Cl)cc3)=C(CN3CCN(c4ccc(C(=O)NS(=O)(=O)c5ccc(N[C@H](CCN6CCOCC6)CSc6ccccc6)c(S(=O)(=O)C(F)(F)F)c5)cc4)CC3)C2)C(C)(C)C)cc1` (stereo partly drawn) [degrader #45], the negative logarithm of the IC50 (pIC50) in assay [1] (Homo sapiens, MOLT-4, 48 h) was 6.82 to 7.30; in assay [2] (Homo sapiens, RS4-11, 48 h), above 7.30.
For `Cc1ncsc1-c1ccc([C@H](C)NC(=O)[C@@H]2C[C@@H](O)CN2C(=O)[C@@H](NC(=O)CCCCCC(=O)N[C@H]2CCCN(CC3(C)CCC(c4ccc(Cl)cc4)=C(CN4CCN(c5ccc(C(=O)NS(=O)(=O)c6ccc(N[C@H](CCN7CCOCC7)CSc7ccccc7)c(S(=O)(=O)C(F)(F)F)c6)cc5)CC4)C3)C2)C(C)(C)C)cc1` (stereo partly drawn) [degrader #46, N1-((3S)-1-((4′-chloro-4-methyl-6-((4-(4-(((4-(((R)-4-morpholino-1-(phenylthio)butan-2-yl)amino)-3-((trifluoromethyl)sulfonyl)phenyl)sulfonyl)carbamoyl)phenyl)piperazin-1-yl)methyl)-2,3,4,5-tetrahydro-[1,1′-biphenyl]-4-yl)methyl)piperidin-3-yl)-N7-((S)-1-((2S,4R)-4-hydroxy-2-(((S)-1-(4-(4-methylthiazol-5-yl)phenyl)ethyl)carbamoyl)pyrrolidin-1-yl)-3,3-dimethyl-1-oxobutan-2-yl)heptanediamide], in that order: 6.30 to 6.82 and 6.82 to 7.30.
For `Cc1ncsc1-c1ccc([C@H](C)NC(=O)[C@@H]2C[C@@H](O)CN2C(=O)[C@@H](NC(=O)CCCCCCC(=O)N[C@H]2CCCN(CC3(C)CCC(c4ccc(Cl)cc4)=C(CN4CCN(c5ccc(C(=O)NS(=O)(=O)c6ccc(N[C@H](CCN7CCOCC7)CSc7ccccc7)c(S(=O)(=O)C(F)(F)F)c6)cc5)CC4)C3)C2)C(C)(C)C)cc1` (stereo partly drawn) [degrader #47, N1-((3S)-1-((4′-chloro-4-methyl-6-((4-(4-(((4-(((R)-4-morpholino-1-(phenylthio)butan-2-yl)amino)-3-((trifluoromethyl)sulfonyl)phenyl)sulfonyl)carbamoyl)phenyl)piperazin-1-yl)methyl)-2,3,4,5-tetrahydro-[1,1′-biphenyl]-4-yl)methyl)piperidin-3-yl)-N8-((S)-1-((2S,4R)-4-hydroxy-2-(((S)-1-(4-(4-methylthiazol-5-yl)phenyl)ethyl)carbamoyl)pyrrolidin-1-yl)-3,3-dimethyl-1-oxobutan-2-yl)octanediamide], in that order: 6.82 to 7.30 and 6.82 to 7.30.
The like results for `Cc1ncsc1-c1ccc([C@H](C)NC(=O)[C@@H]2C[C@@H](O)CN2C(=O)[C@@H](NC(=O)CCCCCCCC(=O)N[C@H]2CCCN(CC3(C)CCC(c4ccc(Cl)cc4)=C(CN4CCN(c5ccc(C(=O)NS(=O)(=O)c6ccc(N[C@H](CCN7CCOCC7)CSc7ccccc7)c(S(=O)(=O)C(F)(F)F)c6)cc5)CC4)C3)C2)C(C)(C)C)cc1` (stereo partly drawn) [degrader #48, N1-((3S)-1-((4′-chloro-4-methyl-6-((4-(4-(((4-(((R)-4-morpholino-1-(phenylthio)butan-2-yl)amino)-3-((trifluoromethyl)sulfonyl)phenyl)sulfonyl)carbamoyl)phenyl)piperazin-1-yl)methyl)-2,3,4,5-tetrahydro-[1,1′-biphenyl]-4-yl)methyl)piperidin-3-yl)-N9-((S)-1-((2S,4R)-4-hydroxy-2-(((S)-1-(4-(4-methylthiazol-5-yl)phenyl)ethyl)carbamoyl)pyrrolidin-1-yl)-3,3-dimethyl-1-oxobutan-2-yl)nonanediamide] were, in that order, 6.82 to 7.30 and above 7.30.
For the molecule “(2S,4R)-1-((S)-2-(4-(4-(4-chlorophenyl)-5-((4-(4-(((4-(((R)-4-morpholino-1-(phenylthio)butan-2-yl)amino)-3-((trifluoromethyl)sulfonyl)phenyl)sulfonyl)carbamoyl)phenyl)piperazin-1-yl)methyl)-3,6-dihydropyridin-1(2H)-yl)-4-oxobutanamido)-3,3-dimethylbutanoyl)-4-hydroxy-N—((S)-1-(4-(4-methylthiazol-5-yl)phenyl)ethyl)pyrrolidine-2-carboxamide [Example 1]”, the pIC50 in assay [1] and in assay [2] was 6.30 to 6.82 throughout.
For the molecule “(2S,4R)-1-((S)-2-(7-(4-(4-chlorophenyl)-5-((4-(4-(((4-(((R)-4-morpholino-1-(phenylthio)butan-2-yl)amino)-3-((trifluoromethyl)sulfonyl)phenyl)sulfonyl)carbamoyl)phenyl)piperazin-1-yl)methyl)-3,6-dihydropyridin-1(2H)-yl)-7-oxoheptanamido)-3,3-dimethylbutanoyl)-4-hydroxy-N—((S)-1-(4-(4-methylthiazol-5-yl)phenyl)ethyl)pyrrolidine-2-carboxamide [Example 2]”, the pIC50 in assay [1] and in assay [2] was 6.30 to 6.82 throughout.
With “(2S,4R)-1-((S)-2-(8-(4-(4-chlorophenyl)-5-((4-(4-(((4-(((R)-4-morpholino-1-(phenylthio)butan-2-yl)amino)-3-((trifluoromethyl)sulfonyl)phenyl)sulfonyl)carbamoyl)phenyl)piperazin-1-yl)methyl)-3,6-dihydropyridin-1(2H)-yl)-8-oxooctanamido)-3,3-dimethylbutanoyl)-4-hydroxy-N—((S)-1-(4-(4-methylthiazol-5-yl)phenyl)ethyl)pyrrolidine-2-carboxamide [Example 3]”, the pIC50 in assay [1] was 6.30 to 6.82; in assay [2], 6.82 to 7.30.
Regarding “(2S,4R)-1-((S)-2-(9-(4-(4-chlorophenyl)-5-((4-(4-(((4-(((R)-4-morpholino-1-(phenylthio)butan-2-yl)amino)-3-((trifluoromethyl)sulfonyl)phenyl)sulfonyl)carbamoyl)phenyl)piperazin-1-yl)methyl)-3,6-dihydropyridin-1(2H)-yl)-9-oxononanamido)-3,3-dimethylbutanoyl)-4-hydroxy-N—((S)-1-(4-(4-methylthiazol-5-yl)phenyl)ethyl)pyrrolidine-2-carboxamide [Example 4]”, the negative-log IC50 (pIC50) is 6.82 to 7.30 in assay [1] and above 7.30 in assay [2].
